Values quoted from earlier work in patent publication US6703390B2, “Sulfur containing dihydrophthalazine antagonists of excitatory amino acid receptors” (Transgenomic, Inc., priority 2000, dated 2004).
Read-outs that look alike come from different tables or passages of the source.

Key:
[1] = tested on: middle cerebral artery occlusion (MCAO) model of ischemia
[2] = tested on: common carotid arteries model of global ischemia; details: compared with the competitive antagonist NBQX

CC1=NN=C(c2ccc(N)cc2)c2cc3c(cc2C1)OCO3 [GYKI 52466]
reduced cortical infarct volumes ([1]; given continuously for 2 hours just after occlusion): 68%
reduced cortical infarct volumes ([1]; given delayed for one hour after occlusion): 48%
efficacy in MCAO model of ischemia ([1]; given either continuously for 2 hours just after occlusion or delayed for one hour): effective
efficacy in global ischemia model [2]: as effective as the glutamate site competitive antagonist NBQX
